These results are taken from ChEMBL document CHEMBL5465560, “Selectivity Literature for EUbOPEN Chemogenomic Library” (2024).

For assay [1], the target named is Serine/threonine-protein kinase MRCK alpha (Homo sapiens) (UniProt Q5VT25). The conditions noted are these: at 10 µM.
The target of assay [2] is Adenosine receptor A3 (Homo sapiens) (UniProt P0DMS8). As to the kind of experiment: Selectivity interaction (Eurofins CEREP Diversity Profile (receptors and ion channels)) EUB0000279b ADORA3. The conditions noted are these: at 10 µM.
Assay [3] deals with T1, Serine/threonine-protein kinase RIO3 (Homo sapiens) (UniProt O14730).
T1 sequence (whole entry): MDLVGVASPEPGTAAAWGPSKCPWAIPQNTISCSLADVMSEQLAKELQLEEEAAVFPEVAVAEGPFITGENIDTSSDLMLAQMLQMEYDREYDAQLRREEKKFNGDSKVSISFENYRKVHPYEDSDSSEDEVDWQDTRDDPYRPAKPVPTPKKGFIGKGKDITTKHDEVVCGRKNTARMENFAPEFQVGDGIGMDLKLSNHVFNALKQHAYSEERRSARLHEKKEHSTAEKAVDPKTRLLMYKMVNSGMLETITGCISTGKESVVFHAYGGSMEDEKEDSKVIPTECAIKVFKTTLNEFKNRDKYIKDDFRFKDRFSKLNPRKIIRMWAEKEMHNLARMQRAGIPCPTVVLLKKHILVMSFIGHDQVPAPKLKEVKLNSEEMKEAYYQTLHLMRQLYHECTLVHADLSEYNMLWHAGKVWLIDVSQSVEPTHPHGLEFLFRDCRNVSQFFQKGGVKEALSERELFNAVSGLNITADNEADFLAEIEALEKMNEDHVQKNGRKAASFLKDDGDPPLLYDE
Put plainly: Selectivity interaction (KinomeScan (DiscoverX)) EUB0000666a RIOK3. Conditions: at 10 µM.

The target in assay [4] is T2, Tyrosine-protein kinase ZAP-70 (Homo sapiens) (UniProt P43403).
T2 sequence (whole entry): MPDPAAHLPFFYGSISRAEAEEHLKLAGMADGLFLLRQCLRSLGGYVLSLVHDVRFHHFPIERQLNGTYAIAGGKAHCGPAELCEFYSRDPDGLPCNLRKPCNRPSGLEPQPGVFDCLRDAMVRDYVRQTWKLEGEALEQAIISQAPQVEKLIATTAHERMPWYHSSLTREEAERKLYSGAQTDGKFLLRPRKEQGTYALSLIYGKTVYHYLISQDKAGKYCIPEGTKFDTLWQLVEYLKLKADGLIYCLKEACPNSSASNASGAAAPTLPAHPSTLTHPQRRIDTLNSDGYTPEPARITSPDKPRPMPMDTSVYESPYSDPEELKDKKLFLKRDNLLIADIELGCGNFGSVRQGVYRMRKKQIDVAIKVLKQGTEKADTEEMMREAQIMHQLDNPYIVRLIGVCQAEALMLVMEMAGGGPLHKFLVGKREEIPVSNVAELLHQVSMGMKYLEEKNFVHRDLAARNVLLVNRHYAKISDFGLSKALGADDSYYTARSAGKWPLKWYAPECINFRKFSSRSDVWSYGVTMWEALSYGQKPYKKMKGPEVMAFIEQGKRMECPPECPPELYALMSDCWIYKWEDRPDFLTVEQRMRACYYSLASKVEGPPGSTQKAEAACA
The conditions noted are these: at 10 µM.

Assay [5] deals with DNA-dependent protein kinase catalytic subunit (Homo sapiens) (UniProt P78527). As to the kind of experiment: Selectivity interaction (ActivX KiNativ screen (kinase selectivity in THP-1 cell lysates)) EUB0000639a PRKDC. The format is subcellular. The conditions noted are these: lysate, at 5 µM.
Sequence of DNA-dependent protein kinase catalytic subunit (Homo sapiens) (P78527 whole entry, canonical isoform): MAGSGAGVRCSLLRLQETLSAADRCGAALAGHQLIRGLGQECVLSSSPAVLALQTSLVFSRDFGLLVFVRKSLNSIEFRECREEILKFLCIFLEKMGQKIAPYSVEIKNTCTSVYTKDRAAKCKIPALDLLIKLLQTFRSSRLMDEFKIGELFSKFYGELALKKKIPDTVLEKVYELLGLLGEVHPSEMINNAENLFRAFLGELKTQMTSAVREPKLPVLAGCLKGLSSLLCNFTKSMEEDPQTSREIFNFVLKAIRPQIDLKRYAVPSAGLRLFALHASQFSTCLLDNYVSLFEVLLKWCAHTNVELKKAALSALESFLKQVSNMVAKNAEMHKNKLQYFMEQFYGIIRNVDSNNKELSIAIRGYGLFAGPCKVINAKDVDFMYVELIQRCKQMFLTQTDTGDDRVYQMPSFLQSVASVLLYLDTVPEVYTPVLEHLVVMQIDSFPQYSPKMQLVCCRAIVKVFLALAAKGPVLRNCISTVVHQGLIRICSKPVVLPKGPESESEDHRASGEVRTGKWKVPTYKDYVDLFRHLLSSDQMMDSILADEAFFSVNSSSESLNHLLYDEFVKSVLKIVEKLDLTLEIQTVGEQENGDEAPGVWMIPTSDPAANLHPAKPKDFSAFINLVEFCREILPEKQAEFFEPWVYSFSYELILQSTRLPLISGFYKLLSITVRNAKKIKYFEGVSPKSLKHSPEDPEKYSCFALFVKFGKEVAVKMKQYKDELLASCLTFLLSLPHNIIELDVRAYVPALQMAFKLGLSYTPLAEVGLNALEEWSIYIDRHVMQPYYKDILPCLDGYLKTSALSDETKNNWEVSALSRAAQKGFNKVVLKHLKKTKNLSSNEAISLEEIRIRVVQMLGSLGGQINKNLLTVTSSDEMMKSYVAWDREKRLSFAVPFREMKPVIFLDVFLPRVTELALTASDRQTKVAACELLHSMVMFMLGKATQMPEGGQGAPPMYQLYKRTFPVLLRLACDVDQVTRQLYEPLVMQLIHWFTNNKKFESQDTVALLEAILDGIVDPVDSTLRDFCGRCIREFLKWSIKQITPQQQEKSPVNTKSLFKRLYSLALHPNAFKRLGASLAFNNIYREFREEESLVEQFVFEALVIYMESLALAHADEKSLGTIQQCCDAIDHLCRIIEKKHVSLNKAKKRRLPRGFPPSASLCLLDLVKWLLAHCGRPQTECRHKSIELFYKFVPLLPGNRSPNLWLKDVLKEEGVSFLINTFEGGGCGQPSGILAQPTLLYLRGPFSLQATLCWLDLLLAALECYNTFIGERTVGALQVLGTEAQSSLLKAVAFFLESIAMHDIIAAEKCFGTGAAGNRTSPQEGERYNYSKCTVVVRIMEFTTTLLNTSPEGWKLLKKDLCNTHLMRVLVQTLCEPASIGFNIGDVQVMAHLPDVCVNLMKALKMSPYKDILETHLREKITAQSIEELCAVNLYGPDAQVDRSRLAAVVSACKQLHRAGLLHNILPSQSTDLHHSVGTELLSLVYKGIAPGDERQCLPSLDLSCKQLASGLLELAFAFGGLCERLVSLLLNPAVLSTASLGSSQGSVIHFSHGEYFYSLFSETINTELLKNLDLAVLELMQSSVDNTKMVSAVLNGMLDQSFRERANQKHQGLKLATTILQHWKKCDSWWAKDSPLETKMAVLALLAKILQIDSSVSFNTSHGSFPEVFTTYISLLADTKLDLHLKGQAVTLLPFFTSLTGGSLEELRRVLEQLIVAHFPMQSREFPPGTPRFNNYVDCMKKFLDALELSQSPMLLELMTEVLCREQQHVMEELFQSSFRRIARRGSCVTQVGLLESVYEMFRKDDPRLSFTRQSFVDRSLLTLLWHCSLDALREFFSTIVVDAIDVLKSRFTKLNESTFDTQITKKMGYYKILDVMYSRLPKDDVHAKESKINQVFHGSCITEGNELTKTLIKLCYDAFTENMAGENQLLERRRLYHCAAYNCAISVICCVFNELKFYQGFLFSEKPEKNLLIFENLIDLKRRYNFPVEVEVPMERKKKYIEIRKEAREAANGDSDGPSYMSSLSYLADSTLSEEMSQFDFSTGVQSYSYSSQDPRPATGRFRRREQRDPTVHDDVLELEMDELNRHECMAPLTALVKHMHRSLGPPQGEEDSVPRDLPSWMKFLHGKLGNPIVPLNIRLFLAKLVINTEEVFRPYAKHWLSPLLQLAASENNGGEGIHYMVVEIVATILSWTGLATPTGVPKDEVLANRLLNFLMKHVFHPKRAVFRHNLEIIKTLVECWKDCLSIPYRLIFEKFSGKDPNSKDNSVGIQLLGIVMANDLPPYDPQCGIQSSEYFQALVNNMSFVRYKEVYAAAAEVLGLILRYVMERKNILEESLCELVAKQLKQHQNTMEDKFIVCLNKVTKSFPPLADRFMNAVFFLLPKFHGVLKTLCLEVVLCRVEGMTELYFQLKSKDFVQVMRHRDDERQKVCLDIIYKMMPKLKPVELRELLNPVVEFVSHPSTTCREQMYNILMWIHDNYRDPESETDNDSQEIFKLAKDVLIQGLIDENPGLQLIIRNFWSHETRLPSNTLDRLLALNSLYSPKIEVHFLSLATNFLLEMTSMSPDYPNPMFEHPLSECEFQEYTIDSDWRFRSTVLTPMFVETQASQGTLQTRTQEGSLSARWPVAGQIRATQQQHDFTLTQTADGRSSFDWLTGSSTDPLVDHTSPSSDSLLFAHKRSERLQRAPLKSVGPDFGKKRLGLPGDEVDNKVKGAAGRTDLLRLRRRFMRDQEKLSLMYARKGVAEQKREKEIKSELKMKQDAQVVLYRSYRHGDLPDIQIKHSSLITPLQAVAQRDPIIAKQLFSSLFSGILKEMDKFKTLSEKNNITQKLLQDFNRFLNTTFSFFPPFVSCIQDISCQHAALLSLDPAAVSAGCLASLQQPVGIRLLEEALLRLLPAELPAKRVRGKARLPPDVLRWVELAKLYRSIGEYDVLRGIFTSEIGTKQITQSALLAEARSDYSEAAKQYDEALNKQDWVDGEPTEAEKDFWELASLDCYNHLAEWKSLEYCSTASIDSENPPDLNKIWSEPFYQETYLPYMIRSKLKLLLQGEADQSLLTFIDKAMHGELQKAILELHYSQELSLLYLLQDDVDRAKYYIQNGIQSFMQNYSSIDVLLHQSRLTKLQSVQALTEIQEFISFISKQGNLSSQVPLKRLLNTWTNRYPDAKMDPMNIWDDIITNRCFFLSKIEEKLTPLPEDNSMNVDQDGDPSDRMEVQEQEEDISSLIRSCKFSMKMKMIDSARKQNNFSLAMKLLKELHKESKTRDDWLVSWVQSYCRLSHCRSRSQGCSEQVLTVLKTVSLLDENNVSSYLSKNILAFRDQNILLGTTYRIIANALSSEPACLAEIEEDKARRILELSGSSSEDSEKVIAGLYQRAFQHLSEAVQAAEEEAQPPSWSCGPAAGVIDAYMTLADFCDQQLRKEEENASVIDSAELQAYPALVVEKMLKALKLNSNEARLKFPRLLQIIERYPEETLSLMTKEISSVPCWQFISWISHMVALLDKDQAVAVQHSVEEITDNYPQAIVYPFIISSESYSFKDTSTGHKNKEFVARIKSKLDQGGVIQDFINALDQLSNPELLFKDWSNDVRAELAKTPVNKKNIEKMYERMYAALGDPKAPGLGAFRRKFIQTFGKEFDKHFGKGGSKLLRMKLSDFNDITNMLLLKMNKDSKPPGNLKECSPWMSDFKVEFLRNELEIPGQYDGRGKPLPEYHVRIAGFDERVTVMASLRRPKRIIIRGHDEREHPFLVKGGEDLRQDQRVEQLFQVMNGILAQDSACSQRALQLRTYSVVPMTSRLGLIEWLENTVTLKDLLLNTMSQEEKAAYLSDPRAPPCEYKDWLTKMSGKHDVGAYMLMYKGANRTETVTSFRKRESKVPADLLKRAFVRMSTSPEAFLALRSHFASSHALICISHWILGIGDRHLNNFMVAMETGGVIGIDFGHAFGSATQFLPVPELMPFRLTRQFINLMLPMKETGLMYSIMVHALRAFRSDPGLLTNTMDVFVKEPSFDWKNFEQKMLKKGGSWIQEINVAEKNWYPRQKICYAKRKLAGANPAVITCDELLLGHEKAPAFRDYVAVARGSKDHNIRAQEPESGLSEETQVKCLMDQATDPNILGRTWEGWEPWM
In assay [6] the target is Casein kinase I isoform epsilon (Homo sapiens, UniProt P49674). Put plainly: Selectivity interaction (KinomeScan (DiscoverX)) EUB0000045b CSNK1E.
Sequence of Casein kinase I isoform epsilon (P49674 whole entry, looked up, canonical isoform): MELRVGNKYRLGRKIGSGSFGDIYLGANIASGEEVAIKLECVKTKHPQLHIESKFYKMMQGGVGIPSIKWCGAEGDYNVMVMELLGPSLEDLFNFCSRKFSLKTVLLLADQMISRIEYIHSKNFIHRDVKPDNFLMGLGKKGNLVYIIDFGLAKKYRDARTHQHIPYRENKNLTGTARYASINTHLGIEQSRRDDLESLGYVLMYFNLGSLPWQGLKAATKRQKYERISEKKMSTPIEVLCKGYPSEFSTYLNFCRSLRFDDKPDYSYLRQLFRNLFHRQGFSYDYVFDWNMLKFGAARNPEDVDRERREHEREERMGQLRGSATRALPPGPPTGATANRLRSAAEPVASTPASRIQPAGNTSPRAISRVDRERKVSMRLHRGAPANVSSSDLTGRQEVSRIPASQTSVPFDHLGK
Assay [7] addresses Dual specificity protein kinase CLK1 (Homo sapiens, UniProt P49759). Put plainly: Selectivity interaction (ProQinase) EUB0000171b CLK1.
For assay [8], the target named is Tyrosine-protein kinase Lyn (Homo sapiens, UniProt P07948). As to the kind of experiment: Selectivity interaction (Upstate Kinase Profiler service (Millipore)) EUB0000056c LYN. Conditions: at 1 µM.
The target of assay [9] is T3, cAMP-dependent protein kinase catalytic subunit PRKX (Homo sapiens) (UniProt P51817).
T3 sequence (whole entry): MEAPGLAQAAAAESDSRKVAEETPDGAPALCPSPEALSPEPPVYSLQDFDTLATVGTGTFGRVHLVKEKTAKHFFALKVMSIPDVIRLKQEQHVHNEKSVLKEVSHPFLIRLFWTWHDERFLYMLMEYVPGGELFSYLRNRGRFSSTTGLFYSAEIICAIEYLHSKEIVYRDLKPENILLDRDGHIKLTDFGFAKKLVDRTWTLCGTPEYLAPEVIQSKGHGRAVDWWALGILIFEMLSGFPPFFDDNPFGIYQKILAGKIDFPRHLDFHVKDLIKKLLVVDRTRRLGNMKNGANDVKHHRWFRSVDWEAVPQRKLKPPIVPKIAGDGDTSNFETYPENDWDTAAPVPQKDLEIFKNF
As to the kind of experiment: Selectivity interaction (KinomeScan (DiscoverX)) EUB0000655a PRKX. Conditions: at 10 µM.

For assay [10], the target named is T4, Activin receptor type-1B (Homo sapiens) (UniProt P36896).
T4 sequence (whole entry): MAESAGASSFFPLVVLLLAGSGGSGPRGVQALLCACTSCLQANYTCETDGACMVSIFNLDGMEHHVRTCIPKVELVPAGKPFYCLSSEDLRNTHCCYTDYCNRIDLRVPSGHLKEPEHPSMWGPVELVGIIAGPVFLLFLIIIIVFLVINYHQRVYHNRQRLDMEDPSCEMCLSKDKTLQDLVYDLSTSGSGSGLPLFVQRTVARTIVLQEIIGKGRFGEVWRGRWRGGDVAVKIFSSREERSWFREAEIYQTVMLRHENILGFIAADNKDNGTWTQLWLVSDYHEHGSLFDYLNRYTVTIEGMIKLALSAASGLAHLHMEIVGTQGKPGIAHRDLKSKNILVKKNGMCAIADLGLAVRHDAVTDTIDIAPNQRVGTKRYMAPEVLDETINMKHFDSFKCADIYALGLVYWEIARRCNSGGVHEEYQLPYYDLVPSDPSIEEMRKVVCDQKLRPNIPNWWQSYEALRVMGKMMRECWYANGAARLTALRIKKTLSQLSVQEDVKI
Put plainly: Selectivity interaction (KinomeScan (DiscoverX)) EUB0000092b ACVR1B. The conditions noted are these: at 10 µM.

Sequence of Dual specificity protein kinase CLK1 (P49759 whole entry, looked up): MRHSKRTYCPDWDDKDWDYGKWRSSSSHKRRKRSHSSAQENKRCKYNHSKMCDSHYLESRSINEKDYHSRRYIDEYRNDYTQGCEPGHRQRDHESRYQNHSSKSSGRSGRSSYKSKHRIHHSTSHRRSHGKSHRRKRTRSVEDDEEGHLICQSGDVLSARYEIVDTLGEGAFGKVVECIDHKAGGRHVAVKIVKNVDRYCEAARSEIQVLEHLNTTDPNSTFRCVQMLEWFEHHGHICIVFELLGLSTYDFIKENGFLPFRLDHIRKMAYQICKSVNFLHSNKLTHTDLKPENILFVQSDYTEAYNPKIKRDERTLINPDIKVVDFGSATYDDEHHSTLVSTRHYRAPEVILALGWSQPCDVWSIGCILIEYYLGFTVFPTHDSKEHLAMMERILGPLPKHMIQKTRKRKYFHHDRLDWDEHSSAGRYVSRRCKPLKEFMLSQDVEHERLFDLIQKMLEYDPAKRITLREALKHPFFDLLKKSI

`COCC(=O)NC/C=C/c1ccc2ncnc(Nc3ccc(Oc4ccc(C)nc4)c(C)c3)c2c1` [CP-724714] displayed a % of control in assay [1] of 100%.
The compound `CC(=O)c1cc(-c2ccccc2OCC2CC2)c2ncccn12` showed a % of control in assay [2] of 23%.
`O=C(NOC[C@H](O)CO)c1ccc(F)c(F)c1Nc1ccc(I)cc1F` displayed a % of control in [3] of 100%.
`Cc1cc([C@@H](C)Nc2ccccc2C(=O)O)c2nc(N3CCOCC3)cc(=O)n2c1` [AZD-6482]: the % of control in assay [4] was 100%.
On to `CC[C@@H]1[C@H](F)C(=O)N[C@@H]1COc1nccc2cc(C(N)=O)c(OC)cc12` [ZIMLOVISERTIB], for which the % of inhibition in [5] is -11.7%.
For the compound `C=CC(=O)Nc1cc(-n2c(=O)ccc3cnc4ccc(-c5ccc(NS(C)(=O)=O)cc5)cc4c32)ccc1C`, the % of control in [6] (at 1 µM) and in assay [6] (at 10 µM) was 100% throughout.
On to `C=CC(=O)Nc1cccc(C(=O)Nc2ccc(Nc3cc(-c4[nH]c(SC)nc4C)ccn3)cc2)c1`, for which the figures for the % of control in [7] (at 1 µM) and in assay [7] (at 5 µM) were 67% and 37%, respectively.
Regarding `Cc1ccc(-c2ccc3c(ccc4sc5c(c43)NC[C@@H](C)NC5=O)n2)cn1`, in assay [8], the % of inhibition turned out to be 8%.
In assay [9], `CN(C)CCOc1ccc(-c2nc(-c3ccncc3)c(-c3ccc4c(c3)CC/C4=N\O)[nH]2)cc1` registered a % of control of 94%.
As to `CCC(=O)N1CCN(c2ccc(-n3c(=O)ccc4cnc5ccc(-c6cnc7ccccc7c6)cc5c43)cc2C(F)(F)F)CC1`, in assay [10], the % of control amounted to 45%.
